Reference: patent US4293483A, “Derivatives of A-30912A nucleus” (priority 1980, dated 1981)
Numbered stars: 1 amine (or outer) side, 2 acyl side, 3 side chain; on linkers, the order of the positions; unused ones are H or OH. Bridge positions count the residues as written; N and C are the ends. Square brackets hold non-standard residues; d marks the D form. Peptide text beside a SMILES is read from it. * marks the point of attachment. ξ: configuration not given here. Orn(4R-OH,5R-OH) = O=C([C@H](C[C@@H](O)[C@@H](O)N[*:3])N[*:1])[*:2]; hTyr(3S-OH,4S-OH) = N[C@H](C(=O)O)[C@H](O)[C@@H](O)c1ccc(O)cc1; Pro(3S-OH,4S-Me) = C[C@H]1CN[C@H](C(=O)O)[C@H]1O; Hyp = O=C(O)[C@@H]1C[C@@H](O)CN1; X4 = Cc1cc(C(=O)[*:2])ccc1N[*:1]; X7 = Cc1ccc(C(=O)[*:2])cc1N[*:1]; X8 = O=C(c1ccc(N[*:1])cc1O)[*:2]; Lauroyl = CCCCCCCCCCCC(=O)*; 3Abz = Nc1cccc(C(=O)O)c1; ξF = NC(Cc1ccccc1)C(=O)O

How the values were obtained:
[1] = tested on: Trichophyton mentagrophytes; assay: Agar plate disc diffusion test, zone of inhibition; type: cell-based; details: 1 mg/ml, 7 mm disc, * measurable zone of inhibition with regrowth of organism around disc, read-out: Size of Zone of Inhibition (*)
Protocol: (§1) ^(a) Compounds were tested as suspension in methanol.
(§2) were tested at a concentration of 1 mg/ml by a dipping 7mm disc into the
(§3) suspension and placing it on the agar surface. Incubation: 24-48 hours at

Candida albicans A-26 [2] = assay: Therapeutic activity against Candida albicans A-26 infection in mice; type: in vivo; details: A26, sc, subcutaneous at 0, 4 and 24 hours post infection; for ED50: dose to cure 50% of test animals, by increase in survival time, read-out: ED50; for minimal effective dose: lowest dose with significant anti-fungal effect, read-out: Lowest Active Dose
Protocol: The results of in vivo tests to evaluate the effectiveness of the compound of Examples 61-81, 86 and 88 against an infection caused by Candida albicans A-26 in mice are given in Table 7, where activity is measured by the ED50 value (the dose in mg/kg. required to cure 50% of the test animals). Where an ED50 value was not obtained, activity is indicated by the lowest dose at which a significant anti-fungal effect is observed. In this test, groups of male albino mice (specific pathogen free), weighing 18 to 20 grams, are infected intravenously with Candida albicans A-26. The animals are X-irradiated 24 hours prior to infection at about 50 roentgens per minute for 8 minutes (400 total dose) to reduce immune responses to the infecting organism. At 0, 4, and 24 hours post infection each group of mice is given graded doses subcutaneously of the test compound as a suspension in 33% polyethylene glycol-water. The day of death for each animal is recorded.
*Dosage Schedule: 40, 20, 15, and 10 mg/kg. Dosages given 0, 4, and 24
hours post injection as suspension of test compound in 30% PEGH2 O.
Number of mice receiving test compounds at each dosage level: 6 mice per
group. Number of mice in control (untreated) group: 10 mice per group.
**As measured by increase in survival time of treated animals versus
control, calculated by method of Reed V. Mueuch, American J. Hygiene, 493

[3] = tested on: Saccharomyces pastorianus X-52; assay: Agar plate disc diffusion test, zone of inhibition; type: cell-based; details: Saccharomyces pastorianus, X52, 48 h, Saccharomyces pastorianus X-52; 1 mg/ml suspension in methanol, 7 mm disc; 24-48 hours at 25-37° C.; read-out: Size of Zone of Inhibition
Protocol: as §1, §2, §3

[4] = tested on: Trychophyton mentagrophytes #6; assay: Agar plate disc diffusion test, MIC per disc; type: cell-based; details: 0.01M sodium borate, pH 7.5, 24 hours at 30° C.
Protocol: (§4) In Table 5, activity is measured by the minimal inhibitory concentration (MIC) of the substance (μg/disc) required to inhibit growth of the test organism.
(§5) *Compounds were suspended in 0.01M sodium borate solution, pH 7.5.
(§6) compounds were tested at 20 μg/disc at top level and at twofold
(§7) dilutions until end points were reached.

Candida albicans A-26 [5] = assay: Agar plate disc diffusion test, zone of inhibition; type: cell-based; details: 1 mg/ml suspension in methanol, 7 mm disc, 24-48 hours at 25-37° C., no regrowth mark
Protocol: as §1, §2, §3

[6] = mouse, in vivo, 416 mg/kg, 240 min
Protocol: In this test, mice are gavaged with a dose of 416 mg/kg of the test compound suspended in 33% PEG 400-water. At time intervals, blood samples are taken from the orbital sinus and are assayed for antibiotic activity as follows: A 7 mm. disc containing 20 μl of whole blood is placed on agar seeded with Aspergillus montevidensis A35137. After 40 hours incubation at 30° C. zones of inhibition from the blood samples are compared to a standard obtained from the test compound, and the amount of compound in the blood sample is calculated.

Candida albicans A-26 [7] = assay: Agar plate disc diffusion test, MIC per disc; type: cell-based; details: 0.01M sodium borate, pH 7.5, 24 hours at 30° C.
Protocol: as §4, §5, §6, §7

Neurospora Crassa 846 = assay: Agar plate disc diffusion test, zone of inhibition; type: cell-based; details: Neurospora crassa, CRASSA846, Neurospora Crassa 846; 1 mg/ml, 7 mm disc; * measurable zone of inhibition with regrowth of organism around disc; read-out: Size of Zone of Inhibition (*)
Protocol: as §1, §2, §3

Structure (SMILES)	zone of inhibition at 1000 µg/mL [1] [mm]	ED50 (Candida albicans A-26 [2]) [mg/kg]	minimal effective dose (Candida albicans A-26 [2]) [mg/kg]	zone of inhibition at 1000 µg/mL [3] [mm]	MIC [4] [μg/disc]	Size of Zone of Inhibition (Candida albicans A-26 [5]) [mm]	Blood Levels [6] [µg/mL]	MIC (Candida albicans A-26 [7]) [μg/disc]	zone of inhibition at 1000 µg/mL (Neurospora Crassa 846) [mm]
CCCCCCCCCCCC(=O)NC(Cc1ccccc1)C(=O)N[C@H]1C[C@@H](O)[C@@H](O)NC(=O)[C@@H]2[C@@H](O)[C@@H](C)CN2C(=O)[C@H]([C@@H](C)O)NC(=O)[C@H]([C@H](O)[C@@H](O)c2ccc(O)cc2)NC(=O)[C@@H]2C[C@@H](O)CN2C(=O)[C@H]([C@@H](C)O)NC1=O (stereo partly drawn) [Example 61] (Lauroyl-[ξF][Orn(4R-OH,5R-OH)]T[Hyp][hTyr(3S-OH,4S-OH)]T[Pro(3S-OH,4S-Me)]; lactam 2-C)	55	> 40	> 40	18	< 0.039	25	0	0.625	42
CCCCCCCCCCCC(=O)Nc1cccc(C(=O)N[C@H]2C[C@@H](O)[C@@H](O)NC(=O)[C@@H]3[C@@H](O)[C@@H](C)CN3C(=O)[C@H]([C@@H](C)O)NC(=O)[C@H]([C@H](O)[C@@H](O)c3ccc(O)cc3)NC(=O)[C@@H]3C[C@@H](O)CN3C(=O)[C@H]([C@@H](C)O)NC2=O)c1 [Example 65] ({Lauroyl-3Abz}-[Orn(4R-OH,5R-OH)]T[Hyp][hTyr(3S-OH,4S-OH)]T[Pro(3S-OH,4S-Me)]; lactam 1-C)	–	> 40	> 40	17	< 0.039	20	0	5.0	–
CCCCCCCCCCCC(=O)Nc1ccc(C(=O)N[C@H]2C[C@@H](O)[C@@H](O)NC(=O)[C@@H]3[C@@H](O)[C@@H](C)CN3C(=O)[C@H]([C@@H](C)O)NC(=O)[C@H]([C@H](O)[C@@H](O)c3ccc(O)cc3)NC(=O)[C@@H]3C[C@@H](O)CN3C(=O)[C@H]([C@@H](C)O)NC2=O)c(O)c1 [Example 66] (Lauroyl-[X8][Orn(4R-OH,5R-OH)]T[Hyp][hTyr(3S-OH,4S-OH)]T[Pro(3S-OH,4S-Me)]; lactam 2-C)	–	> 40	40	18	< 0.039	23	0	1.25	–
CCCCCCCCCCCC(=O)Nc1cc(C(=O)N[C@H]2C[C@@H](O)[C@@H](O)NC(=O)[C@@H]3[C@@H](O)[C@@H](C)CN3C(=O)[C@H]([C@@H](C)O)NC(=O)[C@H]([C@H](O)[C@@H](O)c3ccc(O)cc3)NC(=O)[C@@H]3C[C@@H](O)CN3C(=O)[C@H]([C@@H](C)O)NC2=O)ccc1C [Example 69] (Lauroyl-[X7][Orn(4R-OH,5R-OH)]T[Hyp][hTyr(3S-OH,4S-OH)]T[Pro(3S-OH,4S-Me)]; lactam 2-C)	–	> 40	> 40	17	< 0.039	16	0	> 20	30
CCCCCCCCCCCC(=O)Nc1ccc(C(=O)N[C@H]2C[C@@H](O)[C@@H](O)NC(=O)[C@@H]3[C@@H](O)[C@@H](C)CN3C(=O)[C@H]([C@@H](C)O)NC(=O)[C@H]([C@H](O)[C@@H](O)c3ccc(O)cc3)NC(=O)[C@@H]3C[C@@H](O)CN3C(=O)[C@H]([C@@H](C)O)NC2=O)cc1C [Example 70] (Lauroyl-[X4][Orn(4R-OH,5R-OH)]T[Hyp][hTyr(3S-OH,4S-OH)]T[Pro(3S-OH,4S-Me)]; lactam 2-C)	45	> 40	> 40	19	< 0.039	26	0	20	25
